# Key:
# Göttingen Minipigs = assay: 14-day dermal and systemic toxicity study in Göttingen Minipigs; conditions: anhydrous composition, 14 days, dermal
# Protocol: (§1) All groups received 2 mL of gel formulation, once a day, for 14 consecutive days, applied to approximately 10% of their body surface area on their back.
# (§2) The study included daily observations of the site of application and scoring of erythema and edema (if present), daily general examinations including heart rate as well as pupil size assessments at days 1, 2, 3, 5, 7, 10 and 14. The frequent observations of heart rate and pupil size were intended to identify any potential systemic anticholinergic effect. Main organs were evaluated during necropsy and histopathology evaluation was completed for treated and untreated skin. Blood samples for chemistry and hematology analysis were collected as well as PK samples.
# The estimated BBI-4000 dose applied to the skin in this study was 40 mg/kg/day for Group 3 and 20 mg/kg/day for Group 2.
# [1] = tested on: subjects with axillary hyperhidrosis; assay: Study BBI-4000-CL-101: efficacy, gravimetric sweat production and HDSS; assay type: in vivo, human
# Protocol: Efficacy was assessed by the change in gravimetrically measured sweat production and the change in hyperhidrosis disease severity scale (HDSS) from baseline to Day 15 (end of therapy).
# For the gravimetric assessment, sweat production was measured by placing filter paper (pre-weighed) on the axilla for 5 minutes while the subject was in a semi-reclining position at room temperature. The filter paper was covered with plastic during exposure to the axilla, and was then weighed following the 5-minute exposure period to calculate the amount of sweat produced.
# For the HDSS, subjects rated the severity of their hyperhidrosis on a 4-point scale (1,2, 3, or 4) based on the level of interference with their daily activities.
# [2] = HPLC assay and impurities of aqueous BBI-4000 gel formulations at differing pH; assay type: physicochemical; conditions: Day 7
# Protocol: The standards were prepared in duplicate by weighing 2.0±0.1 mg of BBI-4000 into 1 mL volumetric flasks. Dissolved and diluted to volume with acetonitrile and mixed by inversion.
# Gel samples were prepared in duplicate at a target concentration of 2 mg/ml in a 5-mL volumetric flask. Added 1.5 ml H2O and mixed to disperse the sample. Diluted to volume with acetonitrile and filtered an aliquot through a syringe filter.
# The liquid chromatographic system was set-up as follows: • HPLC Column: XBridge Shield RP18, 4.6×150 mm, 3.5 μm • Column Temp.: 25±1° C. • Sample Temp.: ambient • Flow Rate: 1.5 mL/min • Injection Volume: 10 μL • UV Detection: 220 nm • Run Time: 20 minutes
# [3] = Stability of approximately 2% BBI-4000 in four solvent systems (HPLC); assay type: physicochemical; conditions: for BBI-4000 Assay, Change from Baseline (40° C./75%), reduction: Day 7
# Protocol: Various formulations of approximately 2% BBI-4000 were made and their stabilities assessed. The solvent systems were as follows: • (a) solvent content: 100% water; • (b) solvent content: 60% water/40% ethanol; • (c) solvent content: 30% water/70% ethanol; • (d) solvent content: 100% ethanol. Each sample was assessed at baseline; after 7 days at 25° C./60% humidity; and after 7 days at 40° C./75% humidity. The percentage change from baseline for 40° C. after 7 days was calculated in each case. HPLC analysis was conducted as described in EXAMPLE 2 below.
# There is clearly a dramatic difference in the stability of the anhydrous ethanol formulation compared to the water-containing formulations.
# [4] = Toxicokinetics (PK samples) in the 14-day Göttingen Minipig study; assay type: in vivo, Göttingen Minipigs
# Protocol: as §1, §2
# [5] = solvent 100% ethanol, Day 7 @ 25° C./60%
structure (smiles),measurement,setting,value
"CCOC(=O)C[N@+]1(C)CCC(OC(=O)[C@](O)(c2ccccc2)C2CCCC2)C1.[Br-] (stereo partly drawn) [BBI-4000, (2R,3′R) 3-(2-cyclopentyl-2-phenyl-2-hydroxyacetoxy)-1-(ethoxycarbonylmethyl)-1-methylpyrrolidinium bromide]",Histopathology analysis of treated skin,Göttingen Minipigs,unremarkable and identical to non-treated and vehicle treated skin
same,Comparison of 10% gel and 5% gel (sweat reduction and HDSS improvement),"[1]; Cohort 2, small sample size, no definitive conclusion",BBI-4000 10% gel performed better than BBI-4000 5% gel
same,Subjects reporting a >2-point improvement in HDSS,"[1]; Day 15, 5% and 10% gel aggregated (8 of 12)",67%
same,Proportion of subjects with at least a 50% reduction in sweat production,"[1]; Day 15, 5% and 10% gel aggregated (9 of 12)",75%
same,"Stability of the aqueous formulation system, in words",[2],lack of stability of this formulation system
same,Stability in words: baseline amount of BBI-4000 retained,"[3]; 100% ethanol (absolute or anhydrous), 7 days at 40° C.",essentially maintained the baseline amount of BBI-4000
same,"BBI-4000 Assay, Change from Baseline (40° C./75%), reduction","[3]; solvent 30% water, 70% ethanol",reduction 5%
same,BBI-4000 Main Hydrolysis Products (RRT-0.79-0.84),"[3]; solvent 30% water, 70% ethanol, Day 7 @ 25° C./60%",0.84%
same,BBI-4000 Main Hydrolysis Products (RRT-0.79-0.84),"[3]; solvent 30% water, 70% ethanol, Day 7 @ 40° C./75%",3.50%
same,BBI-4000 Main Hydrolysis Products (RRT-0.79-0.84),"[3]; solvent 30% water, 70% ethanol, baseline",0
same,"BBI-4000 Assay, Change from Baseline (40° C./75%), reduction","[3]; solvent 60% water, 40% ethanol",reduction 5%
same,BBI-4000 Main Hydrolysis Products (RRT-0.79-0.84),"[3]; solvent 60% water, 40% ethanol, Day 7 @ 25° C./60%",0.83%
same,BBI-4000 Main Hydrolysis Products (RRT-0.79-0.84),"[3]; solvent 60% water, 40% ethanol, Day 7 @ 40° C./75%",3.40%
same,BBI-4000 Main Hydrolysis Products (RRT-0.79-0.84),"[3]; solvent 60% water, 40% ethanol, baseline",0
same,"BBI-4000 Assay, Change from Baseline (40° C./75%), reduction",[3]; solvent 100% ethanol,reduction <1%
same,BBI-4000 Assay,[3]; [5],2%
same,BBI-4000 Main Hydrolysis Products (RRT-0.79-0.84),[3]; [5],0
same,BBI-4000 Main Hydrolysis Products (RRT-0.79-0.84),"[3]; solvent 100% ethanol, Day 7 @ 40° C./75%",0
same,BBI-4000 Main Hydrolysis Products (RRT-0.79-0.84),"[3]; solvent 100% ethanol, baseline",0
same,"BBI-4000 Assay, Change from Baseline (40° C./75%), reduction",[3]; solvent 100% water,reduction 9.5%
same,BBI-4000 Main Hydrolysis Products (RRT-0.79-0.84),"[3]; solvent 100% water, Day 7 @ 25° C./60%",1.90%
same,BBI-4000 Assay,"[3]; solvent 100% water, Day 7 @ 40° C./75%",1.80%
same,BBI-4000 Main Hydrolysis Products (RRT-0.79-0.84),"[3]; solvent 100% water, baseline",0
same,Time at which the highest concentration was observed,"[4]; after Day-14 dosing, minipig receiving 20% BBI-4000",2 h
same,Systemic exposure (PK analysis),"[4]; dermal 10% and 20% gel, 14 days","variable, dose related systemic exposure"

# From patent US12398102B2, “Formulation for soft anticholinergic analogs” (BODOR LABORATORIES, INC., priority 2014, dated 2025)
